# Results: ChEMBL document CHEMBL6074620, “Discovery of a triphenylamine-based ligand that targets mitochondrial DNA G-quadruplexes and activates the cGAS-STING immunomodulatory pathway” (Eur J Med Chem, 2024)
# Calls of active or inactive are those of the source. No cut-off for these calls is given here.
# Legend:
# Mus musculus = assay: Immunostimulatory activity in female BALB/c mouse implanted with mouse 4T1 cells assessed as increase in CD8+ T cells in spleen 2.5 mg/kg, iv by flow cytometry; format: functional, organism-based
# [1] = Cytotoxicity against human MCF-10A assessed as cell growth inhibition incubated for 24 hrs by CCK-8 assay; format: toxicity, cell-based; conditions: MCF-10A cells
# Quadruplex DNA [2] = assay: Binding affinity to 3-terminal mt6363 DNA (unknown origin) assessed as dissociation constant by TAMRA-labeled G4 quenching assay; format: nucleic-acid assay
# 4T1 = assay: Cytotoxicity against mouse 4T1 cells assessed as reduction in cell viability incubated for 24 hrs by CCK-8 assay; format: functional, cell-based; conditions: 4T1, 24 h
# MDA-MB-231 = assay: Cytotoxicity against human MDA-MB-231 cells assessed as reduction in cell viability incubated for 24 hrs by CCK-8 assay; format: functional, cell-based; conditions: MDA-MB-231, 24 h
# Quadruplex DNA [3] = assay: Binding affinity to 5-terminal mt6363 DNA (unknown origin) assessed as dissociation constant by TAMRA-labeled G4 quenching assay; format: nucleic-acid assay
SMILES,Kd (Quadruplex DNA [2]) [µM],Kd (Quadruplex DNA [3]) [µM],Activity (Mus musculus),IC50 at 24 h [1] [µM],IC50 (4T1) [µM],IC50 (MDA-MB-231) [µM]
COc1cccc2c1C(=O)c1c(O)c3c(c(O)c1C2=O)C[C@@](O)(C(=O)CO)C[C@@H]3O[C@H]1C[C@H](N)[C@H](O)[C@H](C)O1,–,–,Active,–,–,–
C[N+]1=C(/C=C/c2ccc(N(c3ccccc3)c3ccccc3)cc2)C(C)(C)c2c1ccc1ccccc21,1.1,1.4,–,7,4.3,2.8
C[n+]1c(/C=C/c2ccc(N(c3ccccc3)c3ccccc3)cc2)ccc2ccccc21,5,5.5,–,38,9.6,3.4
C[N+]1=C(/C=C/c2ccc(N(c3ccccc3)c3ccccc3)cc2)C(C)(C)c2ccccc21,6.3,7.3,–,5,4.8,2.6

# The next lines start with results.
Kd (Quadruplex DNA [2]) [µM],Kd (Quadruplex DNA [3]) [µM],SMILES,Activity (Mus musculus),IC50 at 24 h [1] [µM],IC50 (4T1) [µM],IC50 (MDA-MB-231) [µM]
2.1,4.3,COc1ccc(N(c2ccc(/C=C/C3=[N+](C)c4ccccc4C3(C)C)cc2)c2ccc(OC)cc2)cc1,–,8.5,3.5,4
3.2,9,COc1ccc(N(c2ccc(/C=C/c3ccc4ccccc4[n+]3C)cc2)c2ccc(OC)cc2)cc1,–,39.4,9.9,5.4
